species: Bos taurus; test: In vitro inhibition of IL1-beta (interleukin-1-beta) induced degradation of bovine nasal cartilage in an organ culture assay at 30 uM; assay type: functional

| Structure (SMILES) | inhibition at 30 µM |
| --- | --- |
| COc1cc2c(=O)cc3c4ccccc4sn3c2c(OC)c1OC | 80% |
| O=c1cc2c3ccccc3sn2c2ccc(Cl)cc12 | 84% |
| COc1cccc2c1sn1c3ccccc3c(=O)cc21 | 30% |
| COc1cccc2c(=O)cc3c4ccccc4sn3c12 | 74% |

species: Bos taurus; test: In vitro inhibition of IL1-beta (interleukin-1-beta) induced degradation of bovine nasal cartilage in an organ culture assay; assay type: functional

| Structure (SMILES) | IC50 |
| --- | --- |
| O=c1cc2c3ccccc3sn2c2ccccc12 | 8 µM |
| O=c1cc2c3cccnc3sn2c2ccccc12 | 22 µM |

Reference: ChEMBL document CHEMBL1150010, “Inhibition of cartilage degradation by isothiazoloquinolinones” (Bioorg Med Chem Lett, 1994)
